Assays:
ACAT = ACAT inhibitory activity (labelled cholesteryl ester formation from [1-14C]oleoyl-CoA, liver microsome fractions); assay type: biochemical; conditions: compound at 10^-7 M; rabbit liver microsomes; percent inhibition of formation of labelled cholesteryl esters
Description: 1. ACAT inhibitory activity
The enzyme preparation, ACAT was prepared from liver microsome fractions of male rabbits according to the method of E. E. Largis et al. (Journal of Lipid Research, Vol. 30, pages 681-690, 1989). The activity was calculated by assaying the amount of the labelled cholesteryl esters formed from [1-^14 C]oleoyl-CoA and endogenous cholesterol according to the method of Kazuichi NATORI et al. (Japan J. Pharmacol., Vol. 42, pages 517-523, 1986).
The result is shown in Table 1, in which percent inhibition of the formation of the labelled cholesteryl esters with a compound added at 10^-7 M is indicated as index for the ACAT inhibitory activity.

Human LDL = experiment: Antioxidative activity (inhibition of MDA formation in cupric sulfate-induced peroxidation of LDL); assay type: biochemical; conditions: compound 10^-5 M, cupric sulfate 5×10^-6 M, 5 hrs, percent inhibition of MDA formation vs control
Description: 2. Antioxidative activity
Human LDL was incubated in the presence of cupric sulfate (5×10^-6 M) and in the presence or absence of a compound (10^-5 M) for 5 hrs. After the incubation, the peroxidation of low-density lipoproteins (LDL) is evaluated by the formation of malondialdehyde (MDA), which is a sort of lipid peroxides according to the method of Simon J. T. Mao et al. (J. Med. Chem., Vol. 34, pages 298-302, 1991). Activity of the compound is shown by percent inhibition of the MDA formation as compared with control.

SMILES | ACAT Inhibition (%) (ACAT) | Antioxidant Activity (%) (Human LDL)
CCCCCCCNC(=O)Nc1ccccc1NC(=O)c1cc(C(C)(C)C)c(O)c(C(C)(C)C)c1 [Example 6, N-[2-(3-heptylureido)phenyl]-3,5-di-t-butyl-4-hydroxybenzamide] | 79% | 82%
CC(C)(C)c1cc(C(=O)Nc2ccccc2NC(=O)NCC(c2ccccc2)c2ccccc2)cc(C(C)(C)C)c1O [Example 7, N-[2-(3-(2,2-diphenylethyl)ureido]phenyl]-3,5-di-t-butyl-4-hydroxybenzamide] | 86% | 75%
CC(C)(C)c1cc(C(=O)Nc2ccccc2NC(=O)N(Cc2ccccc2)Cc2ccccc2)cc(C(C)(C)C)c1O [Example 8, N-[2-(3,3-dibenzylureido)phenyl]-3,5-di-t-butyl-4-hydroxybenzamide] | 85% | 83%
CC(C)(C)c1cc(C(=O)Nc2ccccc2NC(=O)NC23CC4CC(CC(C4)C2)C3)cc(C(C)(C)C)c1O [Example 11, N-[2-(3-adamantyl)ureido]phenyl-3,5-di-t-butyl-4-hydroxybenzamide] | 73% | 
CC(C)(C)c1cc(C(=O)Nc2ccccc2NC(=O)N(Cc2ccccc2)Cc2ccccn2)cc(C(C)(C)C)c1O [Example 12, N-[2-[3-benzyl-3-(2-pyridylmethyl)ureido]phenyl]-3,5-di-t-butyl-4-hydroxybenzamide] | 79% | 
CCCCCCCN(C)C(=O)Nc1ccccc1NC(=O)c1cc(C(C)(C)C)c(O)c(C(C)(C)C)c1 [Example 13, N-[2-(3-heptyl-3-methyl)ureido]phenyl-3,5-di-t-butyl-4-hydroxybenzamide] | 88% | 
CCCCCCCNC(=O)Nc1ccccc1NCc1cc(C(C)(C)C)c(O)c(C(C)(C)C)c1 [Example 14] | 81% | 96%
COc1ccc(NC(=O)N(Cc2ccccc2)Cc2ccccc2)c(NC(=O)c2cc(C(C)(C)C)c(O)c(C(C)(C)C)c2)c1 [Example 20, N-[2-(3,3-dibenzylureido)-5-methoxyphenyl]-3,5-di-t-butyl-4-hydroxybenzamide] | 99% | 
CCCCCCCN(C)C(=O)Nc1ccc(OC)cc1NC(=O)c1cc(C(C)(C)C)c(O)c(C(C)(C)C)c1 [Example 21, N-[2-(3-heptyl-3-methylureido)-5-methoxyphenyl]-3,5-di-t-butyl-4-hydroxybenzamide] | 93% | 
CCCCCCCNC(=O)Nc1ccc(F)cc1NC(=O)c1cc(C(C)(C)C)c(O)c(C(C)(C)C)c1 [Example 30, N-[5-fluoro-2-(3-heptylureido)phenyl]-3,5-di-t-butyl-4-hydroxybenzamide] | 78% | 79%
CCCCCCCN(C)C(=O)Nc1ccc(F)cc1NC(=O)c1cc(C(C)(C)C)c(O)c(C(C)(C)C)c1 [Example 32, N-[5-fluoro-2-(3-heptyl-3-methylureido)phenyl]-3,5-di-t-butyl-4-hydroxybenzamide] | 95% | 
CCCCCCCN(C)C(=O)Nc1cc(Cl)c(Cl)cc1NC(=O)c1cc(C(C)(C)C)c(O)c(C(C)(C)C)c1 [Example 35, N-[4,5-dichloro-2-(3-heptyl-3-methylureido)phenyl]-3,5-di-t-butyl-4-hydroxybenzamide] | 71% | 
CCCCCCCNC(=O)Nc1cc(OC)ccc1NC(=O)c1cc(C(C)(C)C)c(O)c(C(C)(C)C)c1 [Example 36, N-[2-(3-heptylureido)-4-methoxyphenyl]-3,5-di-t-butyl-4-hydroxybenzamide] | 77% | 92%

Source: patent US5576335A, “Urea derivatives and their use as ACAT inhibitors” (Nisshin Flour Milling Co., Ltd., priority 1994, dated 1996)
